Patent US10300048B2, “Thiazolidinones as cellular anandamide uptake inhibitors and their use in the treatment of psychiatric or neurological disorders and inflammation, in particular neuroinflammation” (UNIVERSITAT BERN, priority 2014, dated 2019)
Like-named read-outs stand apart in the source and are kept apart here.

Assays:
FAAH = FAAH (Homo sapiens (Human), UniProt O00519); experiment: FAAH activity: hydrolysis of [3H]-AEA in U937 cell homogenates; assay type: biochemical; details: U937 cell homogenate, read-out: FAAH inhibition IC50
Sequence of FAAH (O00519 whole entry): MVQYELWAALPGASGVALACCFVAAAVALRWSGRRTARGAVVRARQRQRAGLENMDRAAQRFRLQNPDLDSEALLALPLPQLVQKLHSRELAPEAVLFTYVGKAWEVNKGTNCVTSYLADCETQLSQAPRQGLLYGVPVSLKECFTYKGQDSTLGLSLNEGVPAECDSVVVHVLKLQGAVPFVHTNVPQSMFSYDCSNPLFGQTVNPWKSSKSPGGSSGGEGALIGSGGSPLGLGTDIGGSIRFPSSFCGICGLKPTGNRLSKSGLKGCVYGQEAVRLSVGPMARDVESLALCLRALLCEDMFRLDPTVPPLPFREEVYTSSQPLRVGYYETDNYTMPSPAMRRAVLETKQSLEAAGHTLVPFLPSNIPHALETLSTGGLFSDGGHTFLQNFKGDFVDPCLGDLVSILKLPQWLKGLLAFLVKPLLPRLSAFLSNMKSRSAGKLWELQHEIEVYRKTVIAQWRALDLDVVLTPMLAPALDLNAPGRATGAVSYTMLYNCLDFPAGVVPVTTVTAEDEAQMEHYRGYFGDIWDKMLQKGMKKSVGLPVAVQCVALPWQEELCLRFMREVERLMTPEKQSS
Description: Hydrolysis of [^3H]-AEA by FAAH was determined as previously described in cell homogenates of U937 cells (0.18 mg protein) (Omeir et al., 1999, Biochem Biophys Res Commun, 264, 316-20; Mor et al., 2004, J Med Chem, 47, 4998-5008). Protein amounts of cell homogenates corresponded to 0.5×10^6 cells (U937), to assure best possible comparability of IC50 values as used for the AEA cellular uptake assays. URB597 was used as positive control. Protein quantification was performed using a BCA assay (Thermo Scientific). Enzyme activity was assessed by addition of vehicle or compounds in 10 μL DMSO to 490 μL homogenate in 10 mM Tris HCl, 1 mM EDTA, 0.1% (w/v) BSA fatty acid free, pH=8 and incubation for 15 min at 37° C. After, a mixture of AEA plus [ethanolamine-1-^3H]-AEA (0.5 nM) at final 100 nM was added to the homogenates and incubated for 15 min at 37° C. The reaction was stopped by addition of 1 mL ice-cold CHCl3:MeOH (1:1) followed by vigorous vortexing. Phase separation was achieved by centrifugation at 10′000×g at 4° C. for 10 min. Radioactivity of the separated aqueous phase (upper phase) containing [^3H-ethanolamine] or [^3H-glycerol] was measured by liquid scintillation counting on a Tri-Carb 2100 TR liquid scintillation analyzer after addition of 3.5 mL Ultima Gold scintillation cocktail (PerkinElmer Life Sciences). Results are expressed as hydrolysis of tritium substrate in percent of vehicle treated control. IC50 values were calculated by GraphPad®. Data are reported as means of n=3 independent experiments performed in triplicates.
(§1) Statistical analysis and IC50 values were determined using GraphPad® Prism 5.0 (GraphPad® Software, San Diego, Calif., US). Inhibition curves were obtained by non-linear regression using the built-in log(inhibitor) vs. response-variable slope (four parameters) function. Results were calculated as % of vehicle control of the corresponding fraction (cells, aqueous phase) if not mentioned else. In vivo results are shown in absolute values and were analyzed by a one-way ANOVA following a Tukey's multiple comparison test or student's t-test. If not indicated else the results were compared vs. vehicle (CTRL). *** P<0.001, ** P<0.01, * P<0.05, ns=not significant P>0.05.

hCB1 receptor = hCB1 receptor (Homo sapiens (Human), UniProt P21554); experiment: Radioligand CB receptor binding, [3H]-CP55,940 displacement on CHO-K1 hCB1 membranes; details: for CB1 receptor binding (%) at 10 µM: Table 4
Sequence of hCB1 receptor (P21554 whole entry): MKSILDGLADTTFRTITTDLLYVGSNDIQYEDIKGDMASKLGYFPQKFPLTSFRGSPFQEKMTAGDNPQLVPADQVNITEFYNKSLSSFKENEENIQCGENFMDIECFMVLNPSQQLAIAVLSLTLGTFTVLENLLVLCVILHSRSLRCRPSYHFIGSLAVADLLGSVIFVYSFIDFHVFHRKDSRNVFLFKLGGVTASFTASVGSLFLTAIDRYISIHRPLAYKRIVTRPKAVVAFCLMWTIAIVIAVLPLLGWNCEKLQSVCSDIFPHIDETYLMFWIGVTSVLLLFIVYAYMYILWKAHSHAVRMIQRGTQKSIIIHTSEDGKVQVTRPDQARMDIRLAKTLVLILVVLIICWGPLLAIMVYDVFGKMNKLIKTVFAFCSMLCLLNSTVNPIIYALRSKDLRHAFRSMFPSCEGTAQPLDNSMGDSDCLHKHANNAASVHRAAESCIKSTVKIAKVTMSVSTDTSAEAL
Description: Stably transfected CHO-K1 cells expressing hCB1 or hCB2 receptors (Gertsch et al., 2008, Proc Natl Acad Sci 105, 9099-104) were cultured in T150 cm^2 flasks up to 90% confluence. The medium was removed and cells were washed twice with PBS, 37° C. 10 mL of PBS was added and the cells were scraped and transferred into a falcon tube following homogenization by a Polytron PT1300D for 5 min at 30 krpm. Then, the homogenate was centrifuged (1400×g, 5 min) to remove debris. The supernatant was subjected to ultracentrifugation (64000×g, 45 min, 4° C.) to separate cytosolic from the membrane fraction. The supernatant was discharged and the pellet resuspended in PBS by sonication. Protein quantity was determined by BCA assay (Thermo Scientific) and aliquots of 500 μL were stored at −80° C. until use.
Radioligand CB Receptor Binding
Binding properties of ETI-T compounds to hCB1 or hCB2 receptors were performed as previously reported in a [^3H]-CP55,940 displacement assay (Gertsch et al., 2008, Proc Natl Acad Sci 105, 9099-104). WIN 55,212-2 was used as positive control. In brief, 20 μg protein of CHO-K1 hCB1 or hCB2 membrane preparations were thawed on ice and resuspended in a final volume of 500 μL binding buffer (50 mM Tris-HCl, 2.5 mM EDTA, 5 mM MgCl2, 0.5% fatty acid free BSA, pH 7.4) in silanized glass vials. [^3H]-CP55,940 (168 Ci/mmol) (PerkinElmer, Waltham, Mass., US) was added to a final concentration of 0.5 nM followed by the addition of competitors or vehicle in 5 μL DMSO. Membrane binding was equilibrated for 2 h at room temperature (25° C.). Samples were filter through a 0.1% polyethylenimine pre-soaked UniFilter®-96 GF/B plate (PerkinElmer) and washed twelve times with 167 μL ice-cold assay-buffer. The plate was dried, bottom sealed and 45 μL MicroScint 20 scintillation cocktail (PerkinElmer) were added before measured on a PerkinElmer 1450 Microbeta TRILUX liquid scintillation counter. Unspecific binding was determined by WIN 55,212-2, 10 μM and subtracted from all values. […].

BALB/c mice = experiment: In vivo tetrad test in BALB/c mice; details: 5.0 mg/kg i.p., vs. vehicle; for anti-nociceptive effect in the hot plate test / locomotion (RotaRod) / time spent in the immobile state (catalepsy, bar test): 60 min; for body temperature (tetrad test): 1 h post injection
Description: In vivo Tetrad Test in BALB/c Mice
In mice cannabimimetic substances induce a characteristic profile of behavioral effects (tetrad) which include suppression of locomotion, antinociception, hypothermia and catalepsy (Martin et al., 1991, Pharmacol Biochem Behav, 40, 471-8; Wiley, 2003, Eur J Pharmacol, 471, 185-93; Howlett et al., 2002, Pharmacol Rev, 54, 161-202). Male BALB/c mice (8 weeks old, 20-25 g body weight) were housed under standard environmental conditions (n=5 per cage) at 22-24° C. under a 12 h to 12 h light-dark cycle supplied with food and water ad libitum. ETI-T compounds were dissolved in pure DMSO and administered intraperitoneally (i.p) at doses of 5.0 mg/kg in 20 μL of vehicle 60 min prior to evaluation of behavioural effects. The tetrad test battery was carried out as follows: Rectal temperature was determined using a Physitemp thermometer (Physitemp Instruments Inc., Clifton, N.J. with a thermocoupled probe 1-2 cm into the rectum. The temperature was measured 10 min before compound administration and 1 h post injection. Changes in rectal temperature were expressed as the difference between basal and post injection temperatures. Catalepsy was determined using the bar test where mice were placed on a bar oriented parallel to and approximately 4-5 cm off of the ground. The duration of the time a mouse remained motionless (except respiration) with its front paws on the bar was scored over 40 s. Hypomotility was determined using the RotaRod performance test based on a rotating rod with forced motor activity being applied to the mouse. The maximal duration of this test was about 120 s at a velocity of 4 rpm. Analgesia was determined by the hot plate test. Mice were place on a heated plate (54-56° C.) in a Plexiglas cylinder for a maximum of 2 min. […] All experiments were repeated independently on different days. Animals were handled according to the guidelines on use and care of experimental animals (Mexican Official Norm NOM-062-ZOO-1999 published by SAGARPA in the Diario Oficial del Gobierno Mexicano, 2001), which is in accordance with the Code of Ethics of the Directive 2010/63/EU.
as §1

IC50 (FAAH; Table 4) [µM]	CB1 receptor binding (%) at 10 µM (hCB1 receptor) [%]	IC50 (FAAH; Table 2) [µM]	CB1 receptor binding % binding at 10 μM (hCB1 receptor; Table 3) [%]	Structure (SMILES)	anti-nociceptive effect in the hot plate test (BALB/c mice)	locomotion (RotaRod) (BALB/c mice)	time spent in the immobile state (catalepsy, bar test) (BALB/c mice)	body temperature (tetrad test) (BALB/c mice)
20.4	37			COc1ccc(/C=C2\S/C(=N\c3ccc(OC)cc3)N(c3ccc(OC)cc3)C2=O)cc1 [Compound 5]	anti-nociceptive effect	reduced locomotion	increased time spent in the immobile state	decreased body temperature
60.3	24	60.3	24	O=C1/C(=C/c2cc(Cl)c(O)c(Cl)c2)S/C(=N\c2ccccc2)N1Cc1ccco1 [Compound 23]	anti-nociceptive effect		increased time spent in the immobile state	decreased body temperature
26.9	64			COc1cc(/C=C2\S/C(=N\c3ccccc3)N(c3ccccc3)C2=O)ccc1O [Compound 6]	anti-nociceptive effect	reduced locomotion		decreased body temperature
